The source of these data is ChEMBL document CHEMBL2057122, “Synthesis and positive inotropic evaluation of N-(1-oxo-1,2,4,5-tetrahydro-[1,2,4]triazolo[4,3-a]quinolin-7-yl)acetamides bearing piperazine and 1,4-diazepane moieties” (Bioorg Med Chem Lett, 2012).

The species named for data set [1] is Oryctolagus cuniculus. Kind of data set: (§1) Positive inotropic effect in New Zealand White rabbit left atrium assessed as increase in stroke volume at 3 X 10^-5 M by electrocardiogram analysis. The class given is functional. The settings on record: Cardiac atrium.
Data set [2] is described as follows: as §1. The class given is functional, Oryctolagus cuniculus, Cardiac atrium.
The species named for data set [3] is Oryctolagus cuniculus. Put plainly: Positive inotropic effect in New Zealand White rabbit beating left atrium assessed as increase in stroke volume at 30 uM/L by electrocardiogram analysis. The class given is functional, tissue-based. To be noted: Cardiac atrium.
Data set [4] in a line: Chronotropic effect in New Zealand White rabbit left atrium assessed as change in heart rate by electrocardiogram analysis relative to control. It counts as tissue-based, Oryctolagus cuniculus, Cardiac atrium.
Data set [5] is filed under the species Oryctolagus cuniculus. Put plainly: Positive inotropic effect in New Zealand White rabbit left atrium assessed as increase in stroke volume at 1 X 10^-4 M by electrocardiogram analysis. It counts as functional, tissue-based. The settings on record: Cardiac atrium.

Activity calls are given as the source filed them. The calls are words filed in the database; no cut-off is given here.

For the compound `O=C(CN1CCN(Cc2cccc(Br)c2)CC1)Nc1ccc2c(c1)CCc1n[nH]c(=O)n1-2`, the result in the data set filed under Oryctolagus cuniculus [1] was inactive.
Consider `O=C(CN1CCN(Cc2c(Cl)cccc2Cl)CC1)Nc1ccc2c(c1)CCc1n[nH]c(=O)n1-2`, for which the result in the data set filed under Oryctolagus cuniculus [1] was inactive.
Regarding `COc1cc(CN2CCN(CC(=O)Nc3ccc4c(c3)CCc3n[nH]c(=O)n3-4)CC2)ccc1OCc1ccc(Cl)cc1`, the Activity in data set [2] is 2.22%.
Regarding `COc1ccc(CN2CCN(CC(=O)Nc3ccc4c(c3)CCc3n[nH]c(=O)n3-4)CC2)cc1`, in data set [2], the Activity is 1.46%.
Turning to `O=C(CN1CCN(Cc2cccc(F)c2)CC1)Nc1ccc2c(c1)CCc1n[nH]c(=O)n1-2`, in the data set filed under Oryctolagus cuniculus [1], the outcome was inactive.
Turning to `O=C(CN1CCN(Cc2ccccc2)CC1)Nc1ccc2c(c1)CCc1n[nH]c(=O)n1-2`, the Activity in data set [2] is given as 3.56%. The result in the data set filed under Oryctolagus cuniculus [3] was inactive.
As for `O=C(CN1CCCN(Cc2ccccc2Cl)CC1)Nc1ccc2c(c1)CCc1n[nH]c(=O)n1-2`, the figures for the Activity in data set [2] and in data set [4] were 8.98% and 118.36 bpm, respectively. For the same compound, the outcome in the data set filed under Oryctolagus cuniculus [3] was inactive.
On to `O=C(CN1CCCN(Cc2cccc(Cl)c2)CC1)Nc1ccc2c(c1)CCc1n[nH]c(=O)n1-2`, for which the figures for the Activity in data set [2] and in data set [4] were 6.41% and 120.84 bpm, respectively. The result in the data set filed under Oryctolagus cuniculus [3] was inactive.
With `O=C(CN1CCCN(Cc2ccc(Cl)cc2)CC1)Nc1ccc2c(c1)CCc1n[nH]c(=O)n1-2`, the Activity in data set [2] is recorded as 15.48%; in data set [4], 121.68 bpm. Besides, the outcome in the data set listed under Oryctolagus cuniculus [3] and in the data set listed under Oryctolagus cuniculus [5] was inactive.
As to `O=C(CN1CCN(Cc2ccc(Br)cc2)CC1)Nc1ccc2c(c1)CCc1n[nH]c(=O)n1-2`, the outcome in the data set listed under Oryctolagus cuniculus [1] was inactive.
Consider `O=C(CN1CCN(Cc2ccccc2F)CC1)Nc1ccc2c(c1)CCc1n[nH]c(=O)n1-2`, for which the Activity in data set [2] came out at 1.82%.
As to `O=C(CN1CCN(Cc2ccc(F)cc2)CC1)Nc1ccc2c(c1)CCc1n[nH]c(=O)n1-2`, the outcome in the data set listed under Oryctolagus cuniculus [1] was inactive.
The same measure, in the same setting: to `O=C(CN1CCN(Cc2ccccc2Br)CC1)Nc1ccc2c(c1)CCc1n[nH]c(=O)n1-2` belongs “inactive”.
Consider `Cc1[nH]c(=O)c(C#N)cc1-c1ccncc1` [MILRINONE], for which, in data set [2], the Activity was determined as 2.46%. In the data set listed under Oryctolagus cuniculus [3], the result was inactive.
As to `COc1cc(CN2CCN(CC(=O)Nc3ccc4c(c3)CCc3n[nH]c(=O)n3-4)CC2)ccc1OCc1ccccc1`, the Activity in data set [2] stood at 2.26%.
For `Cc1ccc(CN2CCN(CC(=O)Nc3ccc4c(c3)CCc3n[nH]c(=O)n3-4)CC2)cc1`, the Activity in data set [2] is listed as 5.48%. For the same compound, the outcome in the data set filed under Oryctolagus cuniculus [3] was inactive.
On to `O=C(CN1CCCN(Cc2ccccc2)CC1)Nc1ccc2c(c1)CCc1n[nH]c(=O)n1-2`, for which the Activity was determined as 9.07% in data set [2] and 90.01 bpm in data set [4]. Moreover, in the data set listed under Oryctolagus cuniculus [3], the outcome was inactive.
Take `O=C(CN1CCN(C/C=C/c2ccccc2)CC1)Nc1ccc2c(c1)CCc1n[nH]c(=O)n1-2`: the Activity in data set [2] was found to be 9.4%; in data set [4], 99.89 bpm. Moreover, the outcome in the data set listed under Oryctolagus cuniculus [3] and in the data set listed under Oryctolagus cuniculus [5] was inactive.
Turning to `Cc1ccc(CN2CCCN(CC(=O)Nc3ccc4c(c3)CCc3n[nH]c(=O)n3-4)CC2)cc1`, the Activity is reported as 6.75% in data set [2] and 111.86 bpm in data set [4]. In addition, in the data set listed under Oryctolagus cuniculus [3], the outcome was inactive.
On to `O=C(CN1CCN(Cc2ccccc2Cl)CC1)Nc1ccc2c(c1)CCc1n[nH]c(=O)n1-2`, for which the Activity in data set [2] was 4.01%. Further, the outcome in the data set filed under Oryctolagus cuniculus [3] was inactive.
For `O=C(CN1CCN(Cc2ccc(Cl)cc2)CC1)Nc1ccc2c(c1)CCc1n[nH]c(=O)n1-2` the same measures were 3.09% and “inactive”.
For `O=C(CN1CCN(Cc2cccc(Cl)c2)CC1)Nc1ccc2c(c1)CCc1n[nH]c(=O)n1-2` the same measures were 3.46% and “inactive”.
